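Cultured in 96-well plates, cells were exposed to test compound for 48 hours across five concentrations. The concentration for full growth arrest is given as TGI.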
Experiments:
Assay in all cases: NCI tumour cell line growth inhibition, 48 h
786-0 renal = tested on: 786-0 renal
A498 renal = tested on: A498 renal
A549 NSCLC = tested on: A549 NSCLC
ACHN renal = tested on: ACHN renal
CAKI-1 renal = tested on: CAKI-1 renal
CCRF-CEM leukemia = tested on: CCRF-CEM leukemia
COLO 205 colon = tested on: COLO 205 colon
DLD-1 colon = tested on: DLD-1 colon
DMS 114 small cell lung = tested on: DMS 114 small cell lung
DMS 273 small cell lung = tested on: DMS 273 small cell lung
EKVX NSCLC = tested on: EKVX NSCLC
HCC-2998 colon = tested on: HCC-2998 colon
HCT-15 colon = tested on: HCT-15 colon
HL-60(TB) leukemia = tested on: HL-60(TB) leukemia
HOP-92 NSCLC = tested on: HOP-92 NSCLC
HT29 colon = tested on: HT29 colon
IGROV1 ovarian = tested on: IGROV1 ovarian
K-562 leukemia = tested on: K-562 leukemia
KM12 colon = tested on: KM12 colon
KM20L2 colon = tested on: KM20L2 colon
LOX IMVI melanoma = tested on: LOX IMVI melanoma
LXFL 529 NSCLC = tested on: LXFL 529 NSCLC
M14 melanoma = tested on: M14 melanoma
M19-MEL melanoma = tested on: M19-MEL melanoma
MALME-3M melanoma = tested on: MALME-3M melanoma
MOLT-4 leukemia = tested on: MOLT-4 leukemia
NCI-H226 lung = tested on: NCI-H226 lung
NCI-H23 lung = tested on: NCI-H23 lung
NCI-H460 lung = tested on: NCI-H460 lung
NCI-H522 lung = tested on: NCI-H522 lung
OVCAR-3 ovarian = tested on: OVCAR-3 ovarian
OVCAR-4 ovarian = tested on: OVCAR-4 ovarian
OVCAR-5 ovarian = tested on: OVCAR-5 ovarian
OVCAR-8 ovarian = tested on: OVCAR-8 ovarian
RPMI-8226 leukemia = tested on: RPMI-8226 leukemia
RXF 393 renal = tested on: RXF 393 renal
SF-268 CNS = tested on: SF-268 CNS
SF-295 CNS = tested on: SF-295 CNS
SF-539 CNS = tested on: SF-539 CNS
SK-MEL-2 melanoma = tested on: SK-MEL-2 melanoma
SK-MEL-28 melanoma = tested on: SK-MEL-28 melanoma
SK-MEL-5 melanoma = tested on: SK-MEL-5 melanoma
SK-OV-3 ovarian = tested on: SK-OV-3 ovarian
SN12C renal = tested on: SN12C renal
SNB-19 CNS = tested on: SNB-19 CNS
SNB-75 CNS = tested on: SNB-75 CNS
SW-620 colon = tested on: SW-620 colon
TK-10 renal = tested on: TK-10 renal
UACC-257 melanoma = tested on: UACC-257 melanoma
UACC-62 melanoma = tested on: UACC-62 melanoma
UO-31 renal = tested on: UO-31 renal
XF 498 CNS = tested on: XF 498 CNS
BT-549 breast = tested on: BT-549 breast
DU-145 prostate = tested on: DU-145 prostate
HCT-116 colon = tested on: HCT-116 colon
HOP-18 NSCLC = tested on: HOP-18 NSCLC
HOP-62 NSCLC = tested on: HOP-62 NSCLC
HS 578T breast = tested on: HS 578T breast
MCF7 breast = tested on: MCF7 breast
MDA-MB-435 = tested on: MDA-MB-435
MDA-N = tested on: MDA-N
NCI/ADR-RES ovarian = tested on: NCI/ADR-RES ovarian
PC-3 prostate = tested on: PC-3 prostate
SNB-78 CNS = tested on: SNB-78 CNS
SR leukemia = tested on: SR leukemia
T-47D breast = tested on: T-47D breast
U251 CNS = tested on: U251 CNS

Measured: TGI

COC(=O)/C(C#N)=C1\CCc2ccccc21
> 100 µM: 786-0 renal | A498 renal | A549 NSCLC | ACHN renal | CAKI-1 renal | CCRF-CEM leukemia | COLO 205 colon | DLD-1 colon | DMS 114 small cell lung | DMS 273 small cell lung | EKVX NSCLC | HCC-2998 colon | HCT-15 colon | HL-60(TB) leukemia | HOP-92 NSCLC | HT29 colon | IGROV1 ovarian | K-562 leukemia | KM12 colon | KM20L2 colon | LOX IMVI melanoma | LXFL 529 NSCLC | M14 melanoma | M19-MEL melanoma | MALME-3M melanoma | MOLT-4 leukemia | NCI-H226 lung | NCI-H23 lung | NCI-H460 lung | NCI-H522 lung | OVCAR-3 ovarian | OVCAR-4 ovarian | OVCAR-5 ovarian | OVCAR-8 ovarian | RPMI-8226 leukemia | RXF 393 renal | SF-268 CNS | SF-295 CNS | SF-539 CNS | SK-MEL-2 melanoma | SK-MEL-28 melanoma | SK-MEL-5 melanoma | SK-OV-3 ovarian | SN12C renal | SNB-19 CNS | SNB-75 CNS | SW-620 colon | TK-10 renal | UACC-257 melanoma | UACC-62 melanoma | UO-31 renal | XF 498 CNS

N#CC(C#N)=C(N)/C(C#N)=C/c1ccc2[nH]ccc2c1
> 100 µM: 786-0 renal | A498 renal | A549 NSCLC | ACHN renal | BT-549 breast | CAKI-1 renal | CCRF-CEM leukemia | COLO 205 colon | DMS 114 small cell lung | DMS 273 small cell lung | DU-145 prostate | EKVX NSCLC | HCC-2998 colon | HCT-116 colon | HCT-15 colon | HL-60(TB) leukemia | HOP-18 NSCLC | HOP-62 NSCLC | HOP-92 NSCLC | HS 578T breast | HT29 colon | IGROV1 ovarian | K-562 leukemia | KM12 colon | KM20L2 colon | LOX IMVI melanoma | M14 melanoma | M19-MEL melanoma | MALME-3M melanoma | MCF7 breast | MDA-MB-435 | MDA-N | MOLT-4 leukemia | NCI-H226 lung | NCI-H23 lung | NCI-H460 lung | NCI-H522 lung | NCI/ADR-RES ovarian | OVCAR-3 ovarian | OVCAR-4 ovarian | OVCAR-5 ovarian | OVCAR-8 ovarian | PC-3 prostate | RPMI-8226 leukemia | RXF 393 renal | SF-268 CNS | SF-295 CNS | SF-539 CNS | SK-MEL-2 melanoma | SK-MEL-28 melanoma | SK-MEL-5 melanoma | SK-OV-3 ovarian | SN12C renal | SNB-19 CNS | SNB-75 CNS | SNB-78 CNS | SR leukemia | SW-620 colon | T-47D breast | TK-10 renal | U251 CNS | UACC-257 melanoma | UACC-62 melanoma | UO-31 renal

From PubChem BioAssay (NCI)
